Assay results as given in PubChem BioAssay AID248 (DTP/NCI, 2004).
“And” between values parts separate entries of the source, which are not always exact repeats. Equal values may be shown once. Inconclusive results and toxic doses are left out. No stated cut-off is given here; in the data, active means T/C of 150% or more; inactive means T/C below 125%.

Tested on: L1210 leukemia ip in BDF1 mice, survival T/C
Test: NCI In Vivo Anticancer Drug Screen. Data for tumor model L1210 Leukemia (intraperitoneal) in B6D2F1 (BDF1) mice
Details: endpoint: mean survival time, higher = longer survival
Outline: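 Transplanted-tumor mice were given test agent; controls received vehicle only. Survival readings from the two groups were divided (treated over control).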

[1] = dose: 100.0 mg/kg/injection, schedule: Q04DX003 (ip), vehicle: saline sonified
[2] = dose: 100.0 mg/kg/injection, schedule: Q04DX003 (ip), vehicle: saline
[3] = dose: 200.0 mg/kg/injection, schedule: Q04DX003 (ip), vehicle: saline sonified
[4] = dose: 400.0 mg/kg/injection, schedule: Q04DX003 (ip), vehicle: saline sonified
[5] = dose: 25.0 mg/kg/injection, schedule: Q01DX009 (ip), vehicle: saline
[6] = dose: 50.0 mg/kg/injection, schedule: Q01DX009 (ip), vehicle: saline
[7] = dose: 100.0 mg/kg/injection, schedule: Q04DX002 (ip), vehicle: Klucel (hydroxypropylcellulose) (HPC)
[8] = dose: 200.0 mg/kg/injection, schedule: Q01DX001 (ip), vehicle: Klucel (hydroxypropylcellulose) (HPC)
[9] = dose: 400.0 mg/kg/injection, schedule: Q04DX002 (ip), vehicle: Klucel (hydroxypropylcellulose) (HPC)
[10] = dose: 100.0 mg/kg/injection, schedule: Q04DX003 (ip), vehicle: saline with Tween-80
[11] = dose: 200.0 mg/kg/injection, schedule: Q04DX003 (ip), vehicle: saline with Tween-80
[12] = dose: 400.0 mg/kg/injection, schedule: Q04DX003 (ip), vehicle: saline with Tween-80

Measured: T/C

O=C(COCc1ccccc1)OCc1ccccc1
inactive: dose: 100.0 mg/kg/injection, schedule: Q01DX009 (ip), vehicle: saline sonified 100 % of control | [1] 90 % of control | [2] 98 % of control | dose: 200.0 mg/kg/injection, schedule: Q01DX009 (ip), vehicle: saline sonified 102 % of control | [3] 114 % of control | dose: 200.0 mg/kg/injection, schedule: Q04DX003 (ip), vehicle: saline 94 % of control | dose: 400.0 mg/kg/injection, schedule: Q01DX009 (ip), vehicle: saline sonified 98 % of control | [4] 106 % of control | dose: 400.0 mg/kg/injection, schedule: Q04DX003 (ip), vehicle: saline 94 % of control

CCOC(=O)/C=C/c1cccc([N+](=O)[O-])c1
inactive: dose: 100.0 mg/kg/injection, schedule: Q04DX003 (ip), vehicle: Klucel (hydroxypropylcellulose) (HPC) 98 % of control | dose: 200.0 mg/kg/injection, schedule: Q04DX003 (ip), vehicle: Klucel (hydroxypropylcellulose) (HPC) 91 % of control | dose: 400.0 mg/kg/injection, schedule: Q04DX003 (ip), vehicle: Klucel (hydroxypropylcellulose) (HPC) 101 % of control

CN(C)CCOC(=O)c1ccccc1CBr
inactive: [5] 97 % of control | [6] 95 % of control | dose: 75.0 mg/kg/injection, schedule: Q01DX009 (ip), vehicle: saline 93 % of control

C=CC(O)CCCCCC (centres undefined)
inactive: dose: 50.0 mg/kg/injection, schedule: Q01DX001 (ip), vehicle: carboxymethylcellulose (CMC) 97 % of control | dose: 100.0 mg/kg/injection, schedule: Q01DX001 (ip), vehicle: carboxymethylcellulose (CMC) 101 % of control | dose: 200.0 mg/kg/injection, schedule: Q01DX001 (ip), vehicle: carboxymethylcellulose (CMC) 95 % of control | dose: 400.0 mg/kg/injection, schedule: Q01DX001 (ip), vehicle: carboxymethylcellulose (CMC) 103 % of control

CCc1c(Nc2ccccc2C)[nH]c(N)nc1=S
inactive: dose: 100.0 mg/kg/injection, schedule: Q01DX Z (ip), vehicle: methylcellulose (MC) 101 % of control | dose: 200.0 mg/kg/injection, schedule: Q01DX Z (ip), vehicle: methylcellulose (MC) 95 % of control

O=C(O)C1(C(=O)O)CC(c2ccccc2)C1
inactive: dose: 75.0 mg/kg/injection, schedule: Q04DX003 (ip), vehicle: saline with Tween-80 101 % of control | dose: 150.0 mg/kg/injection, schedule: Q01DX009 (ip), vehicle: saline with Tween-80 91 % of control | dose: 150.0 mg/kg/injection, schedule: Q04DX003 (ip), vehicle: saline with Tween-80 95 % of control | dose: 300.0 mg/kg/injection, schedule: Q01DX009 (ip), vehicle: saline with Tween-80 91 % of control | dose: 300.0 mg/kg/injection, schedule: Q04DX003 (ip), vehicle: saline with Tween-80 101 % of control

Cc1ccc2c(c1)[n+]([O-])c1nc(N)nc(N)c1[n+]2[O-]
inactive: dose: 50.0 mg/kg/injection, schedule: Q04DX002 (ip), vehicle: Klucel (hydroxypropylcellulose) (HPC) 93 % of control | dose: 53.0 mg/kg/injection, schedule: Q01DX001 (ip), vehicle: Klucel (hydroxypropylcellulose) (HPC) 97 % of control | dose: 88.0 mg/kg/injection, schedule: Q01DX001 (ip), vehicle: Klucel (hydroxypropylcellulose) (HPC) 96 % of control | [7] 102 % of control and 104 % of control | dose: 133.0 mg/kg/injection, schedule: Q01DX001 (ip), vehicle: Klucel (hydroxypropylcellulose) (HPC) 91 % of control | [8] 97 % of control | dose: 300.0 mg/kg/injection, schedule: Q01DX001 (ip), vehicle: Klucel (hydroxypropylcellulose) (HPC) 104 % of control | [9] 98 % of control and 119 % of control

CO[C@@H]1CCCCCC[C@H]1[Hg][Cl]
inactive: dose: 2.0 mg/kg/injection, schedule: Q01DX015 (ip), vehicle: carboxymethylcellulose (CMC) 104 % of control | dose: 4.0 mg/kg/injection, schedule: Q01DX015 (ip), vehicle: carboxymethylcellulose (CMC) 95 % of control | dose: 5.0 mg/kg/injection, schedule: Q01DX001 (ip), vehicle: carboxymethylcellulose (CMC) 108 % of control | dose: 8.0 mg/kg/injection, schedule: Q01DX015 (ip), vehicle: carboxymethylcellulose (CMC) 101 % of control | dose: 10.0 mg/kg/injection, schedule: Q01DX001 (ip), vehicle: carboxymethylcellulose (CMC) 112 % of control | dose: 16.0 mg/kg/injection, schedule: Q01DX015 (ip), vehicle: carboxymethylcellulose (CMC) 93 % of control | dose: 20.0 mg/kg/injection, schedule: Q01DX001 (ip), vehicle: carboxymethylcellulose (CMC) 114 % of control | dose: 40.0 mg/kg/injection, schedule: Q01DX001 (ip), vehicle: carboxymethylcellulose (CMC) 108 % of control

Cc1cc(C)c(C(=O)O)cc1C
inactive: dose: 75.0 mg/kg/injection, schedule: Q01DX001 (ip), vehicle: saline 102 % of control | dose: 150.0 mg/kg/injection, schedule: Q01DX001 (ip), vehicle: saline 94 % of control | dose: 300.0 mg/kg/injection, schedule: Q01DX001 (ip), vehicle: saline 102 % of control

O=C(O)COc1c(Cl)c(Cl)c(Cl)c(Cl)c1Cl
inactive: dose: 100.0 mg/kg/injection, schedule: Q01DX009 (ip), vehicle: saline with Tween-80 93 % of control

Cc1ccc(C(=O)CCCN2CCOCC2)c(C)c1
inactive: dose: 5.0 mg/kg/injection, schedule: Q01DX001 (ip), vehicle: saline 105 % of control | dose: 10.0 mg/kg/injection, schedule: Q01DX001 (ip), vehicle: saline 97 % of control | dose: 20.0 mg/kg/injection, schedule: Q01DX001 (ip), vehicle: saline 94 % of control | dose: 40.0 mg/kg/injection, schedule: Q01DX001 (ip), vehicle: saline 108 % of control | dose: 80.0 mg/kg/injection, schedule: Q01DX001 (ip), vehicle: saline 100 % of control | dose: 200.0 mg/kg/injection, schedule: Q01DX001 (ip), vehicle: saline 95 % of control

Nc1c(Cl)[nH]cnc1=S
inactive: dose: 224.0 mg/kg/injection, schedule: Q01DX Z (ip), vehicle: methylcellulose (MC) 98 % of control | dose: 334.0 mg/kg/injection, schedule: Q01DX Z (ip), vehicle: methylcellulose (MC) 94 % of control | dose: 500.0 mg/kg/injection, schedule: Q01DX Z (ip), vehicle: methylcellulose (MC) 94 % of control | dose: 750.0 mg/kg/injection, schedule: Q01DX Z (ip), vehicle: methylcellulose (MC) 94 % of control

Cc1ccc(NC(=O)NCCO)cc1C
inactive: dose: 100.0 mg/kg/injection, schedule: Q04DX002 (ip), vehicle: saline with Tween-80 95 % of control | dose: 200.0 mg/kg/injection, schedule: Q04DX002 (ip), vehicle: saline with Tween-80 95 % of control

COc1ccc2c(c1)CCC(CC(C)=O)C2=O (centres undefined)
inactive: [1] 99 % of control | [3] 90 % of control | [4] 89 % of control

CC(C)(C)c1ccc(S(=O)(=O)c2ccc(C(C)(C)C)c(N=C=O)c2)cc1N=C=O
inactive: dose: 75.0 mg/kg/injection, schedule: Q04DX002 (ip), vehicle: saline with Tween-80 96 % of control | dose: 150.0 mg/kg/injection, schedule: Q04DX002 (ip), vehicle: saline with Tween-80 101 % of control | dose: 300.0 mg/kg/injection, schedule: Q04DX002 (ip), vehicle: saline with Tween-80 93 % of control

CCP(=S)(CC)CC
inactive: [7] 104 % of control | dose: 200.0 mg/kg/injection, schedule: Q04DX002 (ip), vehicle: Klucel (hydroxypropylcellulose) (HPC) 96 % of control | [9] 93 % of control

O=C(O)c1c[nH]c2cc(Cl)ccc2c1=O
inactive: dose: 100.0 mg/kg/injection, schedule: Q01DX001 (ip), vehicle: Klucel (hydroxypropylcellulose) (HPC) 90 % of control | [10] 100 % of control | [8] 101 % of control | [11] 101 % of control and 105 % of control | dose: 400.0 mg/kg/injection, schedule: Q01DX001 (ip), vehicle: Klucel (hydroxypropylcellulose) (HPC) 97 % of control | [12] 100 % of control and 90 % of control

COc1ccc(C2(C(=O)O)CC2)cc1
inactive: [10] 96 % of control | [11] 97 % of control | [12] 94 % of control

C/C(=C\Cl)CO
inactive: [10] 97 % of control | [11] 95 % of control

N#CC1C2CCC(C2)C1CCCN (centres undefined)
inactive: [5] 108 % of control | dose: 25.0 mg/kg/injection, schedule: Q04DX003 (ip), vehicle: saline 102 % of control | [6] 106 % of control | dose: 50.0 mg/kg/injection, schedule: Q04DX003 (ip), vehicle: saline 95 % of control | dose: 100.0 mg/kg/injection, schedule: Q01DX009 (ip), vehicle: saline 98 % of control | [2] 95 % of control and 115 % of control
